Source: patent US20030157573A1, “Use of Axl receptor for diagnosis and treatment of renal disease” (priority 2002, published 2003)
Counter-ions that a name gives are not always drawn.

Experiments:
[1] = tested on: Normal human fetal lung fibroblasts (WI-38); test: Fibroblast proliferation assay (neutral red staining); type: cell-based; settings: for decrease in fibroblast proliferation: DFO
Experimental: (§1) Normal human fetal lung fibroblasts (WI-38, Coriell Cell Repositories) were cultured and sub-cultured in DMEM, supplemented with 10% inactivated fetal bovine serum (FBS), 2 mM L-glutamine, 100 U/ml penicillin, 100 μg/ml streptomycin. Fibroblasts were grown to confluence in 25 cm^2 tissue flasks and sub-cultured after trypsinization (0.5% trypsin-EDTA in Hank's balanced solution without Ca^2+ and Mg^2+) at 37° C. in an atmosphere of 5% CO2. Two ml of trypsin were added to each flask and incubated for 5 min; then cultures were centrifuged (5 min, 1000 rpm) and fresh medium was added to the pellet. Splitting conditions were 1:4-1:6.
The proliferation rate of sub-confluent fibroblasts was evaluated by staining with neutral red (BioRad). Fibroblasts were seeded in 96-well plate (6×10^3/well) in 200 μl of supplemented DMEM/10% FBS. After overnight culture, wells were washed twice with supplemented DMEM/20% FBS. Then, either TGF-β (2-20 ng/ml) or deferoxamine mesylate (DFO, which leads to conditions of chemical hypoxia) at a concentration of […] was added in 200 μl of supplemented DMEM/2% FBS for either 16 hours, 24 hours, 72 hours, or 5 days.
In the case of glucose treatments, after overnight culture, cell-containing wells were washed twice with supplemented glucose-free DMEM/2% FBS. Working concentrations of glucose (5.5 mM, 15 mM, 27.5 mM, or 55 mM) were prepared by dissolving stock solution (110 mM) in supplemented DMEM without glucose/2% FBS. Prepared solutions of glucose were added to fibroblast cultures for either 24 or 72 hours.
Upon completion of incubation, cells were stained with 100 μl of 1% neutral red for 2 hours. After washing with cold PBS, fibroblast monolayers were fixed with 200 μl of ethanol-Sorenson buffer solution (1:1) for 10 min. Optical density was measured with an automated spectrophotometer (λ=540 nm).

Ax1 [2] = settings: vascular smooth muscle cells; cited from earlier work
mesangial cells = settings: together with the extracellular domain of Ax1; blockade of the Gas6-mediated pathway; cited from earlier work
Ax1 [3] = test: Ax1 immunoprecipitation and anti-phosphotyrosine blot after TGF-β stimulation; type: cell-based, rat; settings: serum starved Rat1 cells, 5 ng/ml TGF-β, 15 min-2 hr
Experimental: FIG. 3. […] Rat1 cells exposed to TGF-β stimulation (5 ng/ml for 15 minutes, 30 minutes, 60 minutes and 2 hours) were used for immunoprecipitation. Ax1 was immunoprecipited with anti Ax1 M-20. Anti phosphotyrosine antibodies were used to monitor ax1 phosphorylation state following TGF-β treatment (5 ng/ml for 15 minutes-2 hr). Samples in the first and last lane are from cells without TGF-β stimulation.
(§2) Further experiments were done on Rat1 cells that were serum starved for 24 hr and then stimulated for the indicated time (15 min-2 hr) with 5 ng/ml TGF-β.

[4] = tested on: Normal human fetal lung fibroblasts (WI-38); test: Collagen production assay ([3H]-proline incorporation into collagenous proteins); type: cell-based; settings: concentrations of 2-20 ng/ml
Experimental: as §1
Collagen production by confluent fibroblast monolayers was assessed by [^3H]-proline incorporation into collagenous proteins. Fibroblasts were seeded in 24-well tissue culture plates (2×10^4/well) and grown in 1 ml of supplemented DMEM/10%FBS until confluence.
Confluent fibroblast cultures were incubated with prepared solutions for either 24 or 48 hr. […] The production of collagen was determined as the difference between total [^3H]proline-containing proteins in the sample incubated without collagenase and those left after collagenase digestion. To determine the number of cells in each well, fibroblasts were detached by trypsinization on the last day of the experiment, and counted in a hemocytometer. […]

Ax1 [5] = test: Western blot analysis of endogenous Ax1 expression after TGF-β stimulation; type: cell-based, rat
Experimental: FIG. 1. […] Lane 1: NRK 49F cells; Lane2: NRK 49F cells with TGF-β 5 ng/ml, 24 hr; Lane 3: Rat1 cells; Lane4: Rat1 cells+TGF-β 5 ng/ml, 24 hr; Lane 5: W138 cells; Lane 6: HeLa cells; Lane 7: 293 cells.
FIG. 2. […] Total cell lysates from Rat1 cells exposed to TGF-β stimulation (5 ng/ml for 15 minutes, 30 minutes, 60 minutes and 2 hours) were run on gel and probed with anti Ax1 C20 Ab (Western blot analysis). Samples in the first and last lane are from cells without TGF-β stimulation.
In order to verify the chip hybridization results, the response of endogenous Ax1 expression to TGF-β stimulation was monitored by Western blot analysis. Total cellular proteins from various cell lines, (of which Rat1 cell line was also stimulated by TGF-β (5 ng/ml for 24 hr) were extracted, and the expression of Ax1 was analyzed by Western blot analysis. Thirty (30) μg of total cellular lysate were run on an 8% SDS gel.
as §2

Ax1 [6] = test: Microarray hybridization of treated human fibroblasts (Fibrosis DNA chip); type: cell-based; settings: TGF-β treatment of human fibroblasts
Experimental: Microarray-based analysis of gene expression was based on the analysis of human fibroblasts subject to selected stimuli resulting in changes in extracellular collagen accumulation and proliferation—the hallmarks of fibrosis. According to the present invention, a specific “Fibrosis” DNA chip was first prepared followed by a microarray hybridization experiments with 19 different types of probes. Analysis of the results was carried out by proprietary algorithms, and analysis of the selected set of genes was performed by using bioinformatics and the scienctific literature.
A dedicated human “Fibrosis” DNA chip was prepared according to assignee's SDGI method (PCT Application Publication No. WO 01/75180) from growth-arrested human fibroblasts.
Probes for microarray hybridization were derived from these treated fibroblasts. In accordance with the present invention, treatments that are relevant for diabetic nephropathy development were used, such as glucose deprivation or hypoxia (modeling ischemic conditions that develop in fibrotic kidney); high glucose (modeling diabetic hyperglycemia) and TGF-β induction (modeling a fibrotic condition that is characterized by growth factor and cytokine imbalance).
In the next step, the RNA from these treated fibroblasts was extracted and used for preparation of probes for microarray hybridization. The scheme of hybridization is presented below: […]

**Q.** Which results are given for `CC(=O)N(O)CCCCCNC(=O)CCC(=O)N(O)CCCCCNC(=O)CCC(=O)N(O)CCCCCN` [DFO, deferoxamine mesylate]?
**A.** decrease in fibroblast proliferation ([1]; after 16 hr incubation): 20%; decrease in fibroblast proliferation ([1]; after 5 days of treatment): 80%

**Q.** For `CCCCc1nc(Cl)c(CO)n1Cc1ccc(-c2ccccc2-c2nn[nH]n2)cc1` [losartan], which “effect on angiotensin-stimulated Ax1 expression” value (Ax1 [2]) is on record?
**A.** Its value is “blocked the stimulatory effect of angiotensin on Ax1 expression”.

**Q.** Which mesangial cell proliferation (mesangial cells) does the source give for `CC(=O)CC(c1ccccc1)c1c(O)c2ccccc2oc1=O` (stereo not shown) [wafarin] here?
**A.** Its mesangial cell proliferation is “inhibit mesangial cell proliferation”.

**Q.** With TGF-β as the compound, how does the Ax1 phosphorylation (Ax1 [3]) read?
**A.** The Ax1 phosphorylation was “Increase in its phosphorylation”.

**Q.** And the “increase in the fibroblast proliferation rate” value ([1]; 2 and 20 ng/ml, after 24 hrs treatment)?
**A.** Its value is ~60%.

**Q.** And the “enhancement in collagen production” value [4]?
**A.** Its value is 110-180%.

**Q.** And the “endogenous Ax1 expression (Western blot)” value (Ax1 [5]; Rat1 cells, TGF-β 5 ng/ml for 24 hr)?
**A.** The value was “slight up-regulation”.

**Q.** What about the “Ax1 protein level (Western blot)” value (Ax1 [5]; serum starved Rat1 cells, 5 ng/ml TGF-β, following 15 min) of the same compound?
**A.** Its value is “induces Ax1 protein level”.

**Q.** And the “induction of Ax1 expression” value (Ax1 [6])?
**A.** Its value is “at least 2 fold”.
